Series [1] can be described thus: Highest frequency of moderate liver toxicity observed during clinical trials, expressed as a percentage. [column '% BIOL' in source]. Conditions: human.
A short description of series [2]: Highest frequency of acute liver toxicity observed during clinical trials, expressed as a percentage. [column '% AIGUE' in source]. Conditions: human.
Series [3] can be described thus: Presence of at least one case with successful reintroduction. [column 'REINT' in source]. Conditions: human.
Series [4] is described as follows: Times to onset, minimal and maximal, observed in the indexed observations. [column 'DELAI' in source]. Conditions: human.
For series [5] the following is noted: human, serum.
The conditions of series [6]: human, serum. This is another data set of the same source.
For series [7] the following is noted: human.
The conditions of series [8]: human. The source holds these as a separate data set.
For series [9] the following is noted: human. The source holds these as a separate data set.
For series [10] the following is noted: human, serum, 4383 h.
The conditions of series [11]: human. This is another data set of the same source.
For series [12] the following is noted: human. The source holds these as a separate data set.
The conditions of series [13]: human. The source holds these as a separate data set.
The conditions of series [14]: human. This is another data set of the same source.
The conditions of series [15]: human. The source holds these as a separate data set.
For series [16] the following is noted: human. The source holds these as a separate data set.
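Throughout, for Hepatotoxicity (association with vascular disease): count of indexed literature references reporting vascular liver injury in humans, e.g. peliosis hepatitis, hepatic veno-occlusive disease or Budd-Chiari syndrome.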
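Throughout, for Hepatotoxicity (benign tumour): value is a count of indexed literature references citing a benign tumour confirmed by histopathology.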
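Throughout, for Hepatotoxicity (choleostasis): human cholestatic liver injury, shown by histopathology or by peak ALT or AST elevation over alkaline phosphatase ratio below 2, value counts indexed literature reports.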
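Throughout, for Hepatotoxicity (chronic liver disease): chronic liver injury confirmed by histopathology or persistently raised serum aminotransferase activity beyond 6 months, value given as the count of indexed literature references.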
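Throughout, for Hepatotoxicity (cirrhosis): value is a count of indexed literature references reporting cirrhosis confirmed by histopathology.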
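Throughout, for Hepatotoxicity (cytolytic): human cytolytic liver injury, shown by histopathology or by a ratio above 5 of peak ALT or AST elevation to alkaline phosphatase elevation, value counts indexed references.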
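Throughout, for Hepatotoxicity (granulomatous hepatitis): value is a count of indexed literature references reporting granulomatous liver disease confirmed by histopathology.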
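Throughout, for Hepatotoxicity (malignant tumour): malignant tumour confirmed by histopathology, value gives the count of indexed literature references reporting it.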
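Throughout, for Hepatotoxicity (severe hepatitis): human clinical data: severe hepatitis, meaning potentially life-threatening liver failure or clinically observed cases, the value counts how many indexed literature references report it.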
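Throughout, for Hepatotoxicity (steatosis): steatosis confirmed by histopathology, value is the count of indexed references.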

Turning to `COc1c2occc2c(OC)c2c(=O)cc(C)oc12` [KHELLIN], the “Hepatotoxicity (moderate)” value in series [1] is recorded as 0%; in series [5], 1. For the same compound, the “Hepatotoxicity (acute)” value in [2] is 0%; in series [6], 1. For the same compound, the “Hepatotoxicity (successful reintroduction)” value in series [3] is “yes”. Moreover, the “Hepatotoxicity (time to onset)” value in series [4] is reported as 5 weeks. In addition, the “Hepatotoxicity (cytolytic)” value in series [7] is on record as 1. Moreover, the “Hepatotoxicity (choleostasis)” value in series [8] is recorded as 0. In addition, the “Hepatotoxicity (severe hepatitis)” value in series [9] was found to be 0. The “Hepatotoxicity (chronic liver disease)” value in series [10] amounted to 0. In addition, the “Hepatotoxicity (cirrhosis)” value in series [11] is 0. Moreover, in [12], the “Hepatotoxicity (granulomatous hepatitis)” value was 0. The “Hepatotoxicity (association with vascular disease)” value in series [13] was 0. In addition, the “Hepatotoxicity (steatosis)” value in [14] is reported as 0. Further, the “Hepatotoxicity (malignant tumour)” value in series [15] was found to be 0. The “Hepatotoxicity (benign tumour)” value in series [16] is 0.

For `Cc1c(OCC(F)(F)F)ccnc1C[S+]([O-])c1nc2ccccc2[nH]1` (stereo not given) [LANSOPRAZOLE], the figures for the “Hepatotoxicity (moderate)” value in series [1] and in series [5] were 10.5% and 7, respectively. The “Hepatotoxicity (acute)” value in series [2] turned out to be 0%; in [6], 4. For the same compound, the “Hepatotoxicity (successful reintroduction)” value in series [3] is recorded as “yes”. In series [4], the “Hepatotoxicity (time to onset)” value is reported as 13 days - 5 weeks. In [7], the “Hepatotoxicity (cytolytic)” value came out at 3. In series [8], the “Hepatotoxicity (choleostasis)” value was 1. For the same compound, in series [9], the “Hepatotoxicity (severe hepatitis)” value was determined as 1. Further, the “Hepatotoxicity (chronic liver disease)” value in [10] was 0. Further, the “Hepatotoxicity (cirrhosis)” value in [11] is reported as 0. Moreover, in series [12], the “Hepatotoxicity (granulomatous hepatitis)” value was found to be 0. In series [13], the “Hepatotoxicity (association with vascular disease)” value was found to be 0. In [14], the “Hepatotoxicity (steatosis)” value amounted to 0. In series [15], the “Hepatotoxicity (malignant tumour)” value came to 0. The “Hepatotoxicity (benign tumour)” value in series [16] turned out to be 0.

In the case of `[Li]` [LITHIUM], the “Hepatotoxicity (moderate)” value in series [1] amounted to 0%; in [5] it was 4. Further, the “Hepatotoxicity (acute)” value in series [2] turned out to be 0%; in series [6] it was 0. In addition, the “Hepatotoxicity (successful reintroduction)” value in series [3] was “yes”. For the same compound, the “Hepatotoxicity (time to onset)” value in [4] turned out to be 2 days - 2 months. The “Hepatotoxicity (cytolytic)” value in series [7] is recorded as 0. The “Hepatotoxicity (choleostasis)” value in series [8] came to 0. In series [9], the “Hepatotoxicity (severe hepatitis)” value was found to be 0. Also, in series [10], the “Hepatotoxicity (chronic liver disease)” value was determined as 1. Moreover, the “Hepatotoxicity (cirrhosis)” value in series [11] stood at 0. For the same compound, the “Hepatotoxicity (granulomatous hepatitis)” value in [12] was found to be 0. Moreover, the “Hepatotoxicity (association with vascular disease)” value in series [13] is 0. In series [14], the “Hepatotoxicity (steatosis)” value is on record as 0. For the same compound, the “Hepatotoxicity (malignant tumour)” value in series [15] was found to be 0. Further, the “Hepatotoxicity (benign tumour)” value in [16] worked out at 0.

On to `CN(CCCN1c2ccccc2CCc2ccccc21)CC(=O)c1ccc(Cl)cc1` [LOFEPRAMINE], for which the “Hepatotoxicity (moderate)” value in series [1] was found to be 46.5%; in [5], 7. Also, the “Hepatotoxicity (acute)” value in series [2] is 2.3%; in [6] it was 3. In series [3], the “Hepatotoxicity (successful reintroduction)” value was “yes”. Also, the “Hepatotoxicity (time to onset)” value in [4] was 1 week - 12 weeks. In addition, the “Hepatotoxicity (cytolytic)” value in [7] is 2. The “Hepatotoxicity (choleostasis)” value in series [8] is listed as 3. Further, in [9], the “Hepatotoxicity (severe hepatitis)” value was 1. Besides, the “Hepatotoxicity (chronic liver disease)” value in series [10] was 0. For the same compound, the “Hepatotoxicity (cirrhosis)” value in series [11] came out at 0. The “Hepatotoxicity (granulomatous hepatitis)” value in series [12] is listed as 0. Also, in series [13], the “Hepatotoxicity (association with vascular disease)” value was found to be 0. Moreover, in [14], the “Hepatotoxicity (steatosis)” value stood at 0. Besides, the “Hepatotoxicity (malignant tumour)” value in [15] is given as 0. Moreover, the “Hepatotoxicity (benign tumour)” value in series [16] was 0.

In the case of `N[C@@H](C(=O)N[C@@H]1C(=O)N2C(C(=O)O)=C(Cl)CC[C@H]12)c1ccccc1` [LORACARBEF ANHYDROUS], the “Hepatotoxicity (moderate)” value in series [1] is on record as 15%; in series [5] it was 19. Further, the “Hepatotoxicity (acute)” value in series [2] is given as 0%; in series [6], 1. The “Hepatotoxicity (successful reintroduction)” value in [3] is “yes”. Moreover, the “Hepatotoxicity (time to onset)” value in series [4] turned out to be 1 week - 6 weeks. Also, in [7], the “Hepatotoxicity (cytolytic)” value turned out to be 1. Further, the “Hepatotoxicity (choleostasis)” value in series [8] worked out at 1. In addition, the “Hepatotoxicity (severe hepatitis)” value in series [9] came out at 0. In series [10], the “Hepatotoxicity (chronic liver disease)” value was found to be 0. The “Hepatotoxicity (cirrhosis)” value in [11] is recorded as 0. Further, in [12], the “Hepatotoxicity (granulomatous hepatitis)” value came to 0. Moreover, the “Hepatotoxicity (association with vascular disease)” value in series [13] is 0. In [14], the “Hepatotoxicity (steatosis)” value was 0. Besides, the “Hepatotoxicity (malignant tumour)” value in [15] amounted to 0. Also, the “Hepatotoxicity (benign tumour)” value in [16] worked out at 0.

As to `CCCCc1nc(Cl)c(CO)n1Cc1ccc(-c2ccccc2-c2nn[nH]n2)cc1` [LOSARTAN], the figures for the “Hepatotoxicity (moderate)” value in series [1] and in [5] were 20% and 11, respectively. Moreover, the “Hepatotoxicity (acute)” value was determined as 0% in series [2] and 5 in [6]. In series [3], the “Hepatotoxicity (successful reintroduction)” value is given as “yes”. Moreover, the “Hepatotoxicity (time to onset)” value in [4] was found to be 2 weeks - 5 months. For the same compound, the “Hepatotoxicity (cytolytic)” value in series [7] is listed as 4. Besides, the “Hepatotoxicity (choleostasis)” value in series [8] is on record as 0. Moreover, the “Hepatotoxicity (severe hepatitis)” value in series [9] was found to be 1. Moreover, the “Hepatotoxicity (chronic liver disease)” value in series [10] came to 1. Besides, the “Hepatotoxicity (cirrhosis)” value in series [11] was determined as 0. The “Hepatotoxicity (granulomatous hepatitis)” value in series [12] is 0. The “Hepatotoxicity (association with vascular disease)” value in [13] is listed as 0. In addition, the “Hepatotoxicity (steatosis)” value in [14] amounted to 0. Moreover, the “Hepatotoxicity (malignant tumour)” value in series [15] was 0. Further, in series [16], the “Hepatotoxicity (benign tumour)” value is on record as 0.

With `CCC1(c2ccccc2)C(=O)NC(=O)N(C)C1=O` (stereo not given) [MEPHOBARBITAL], the “Hepatotoxicity (moderate)” value in series [1] stood at 0%; in series [5], 0. Besides, the “Hepatotoxicity (acute)” value is listed as 0% in series [2] and 1 in series [6]. The “Hepatotoxicity (successful reintroduction)” value in series [3] is recorded as “yes”. The “Hepatotoxicity (time to onset)” value in [4] is 3 months. The “Hepatotoxicity (cytolytic)” value in series [7] is 1. Also, the “Hepatotoxicity (choleostasis)” value in [8] is listed as 0. The “Hepatotoxicity (severe hepatitis)” value in [9] stood at 0. In [10], the “Hepatotoxicity (chronic liver disease)” value amounted to 0. Moreover, the “Hepatotoxicity (cirrhosis)” value in [11] was 0. Further, the “Hepatotoxicity (granulomatous hepatitis)” value in series [12] is 0. For the same compound, the “Hepatotoxicity (association with vascular disease)” value in [13] is listed as 0. Moreover, in series [14], the “Hepatotoxicity (steatosis)” value came out at 0. The “Hepatotoxicity (malignant tumour)” value in [15] was 0. The “Hepatotoxicity (benign tumour)” value in [16] stood at 0.

Consider `CN(C)C(=N)N=C(N)N` [METFORMIN], for which the “Hepatotoxicity (moderate)” value in series [1] (Liver) was determined as 0%; in series [5], 1. Also, the entries for the “Hepatotoxicity (acute)” value in series [2] (Liver) and in series [6] were 0% and 10, respectively. Also, the “Hepatotoxicity (successful reintroduction)” value in series [3] is listed as “yes”. The “Hepatotoxicity (time to onset)” value in [4] turned out to be 1 week - 17 months. Besides, the “Hepatotoxicity (cytolytic)” value in series [7] (Liver) came out at 3. For the same compound, the “Hepatotoxicity (choleostasis)” value in [8] (Liver) was determined as 6. Also, the “Hepatotoxicity (severe hepatitis)” value in [9] (Liver) was 0. Also, the “Hepatotoxicity (chronic liver disease)” value in [10] is 0. Also, the “Hepatotoxicity (cirrhosis)” value in series [11] is reported as 0. Besides, the “Hepatotoxicity (granulomatous hepatitis)” value in [12] (Liver) is reported as 0. Moreover, the “Hepatotoxicity (association with vascular disease)” value in series [13] is on record as 0. Further, the “Hepatotoxicity (steatosis)” value in [14] was determined as 0. Further, the “Hepatotoxicity (malignant tumour)” value in series [15] was 0. Further, the “Hepatotoxicity (benign tumour)” value in [16] worked out at 0.

`CC(=O)O[C@H]1CC[C@H]2[C@@H]3CC[C@H]4CC(=O)C=C(C)[C@]4(C)[C@H]3CC[C@]12C` [METHENOLONE ACETATE]: the “Hepatotoxicity (moderate)” value in [1] is 0%; in [5], 1. Besides, the “Hepatotoxicity (acute)” value in series [2] stood at 0%; in [6], 5. Moreover, the “Hepatotoxicity (successful reintroduction)” value in series [3] is listed as “yes”. For the same compound, the “Hepatotoxicity (time to onset)” value in [4] is on record as 1 month - 15 years. Moreover, the “Hepatotoxicity (cytolytic)” value in series [7] worked out at 0. In addition, in series [8], the “Hepatotoxicity (choleostasis)” value was found to be 0. For the same compound, the “Hepatotoxicity (severe hepatitis)” value in series [9] was determined as 0. Besides, the “Hepatotoxicity (chronic liver disease)” value in series [10] was 0. For the same compound, in [11], the “Hepatotoxicity (cirrhosis)” value turned out to be 0. In [12], the “Hepatotoxicity (granulomatous hepatitis)” value is 0. Further, the “Hepatotoxicity (association with vascular disease)” value in series [13] amounted to 0. For the same compound, in series [14], the “Hepatotoxicity (steatosis)” value is given as 0. In addition, in series [15], the “Hepatotoxicity (malignant tumour)” value was 1. Further, the “Hepatotoxicity (benign tumour)” value in series [16] was determined as 1.

`COC(=O)C(c1ccccc1)C1CCCCN1` (stereo not given) [METHYLPHENIDATE]: the figures for the “Hepatotoxicity (moderate)” value in series [1] and in series [5] were 0% and 1, respectively. In addition, the “Hepatotoxicity (acute)” value in series [2] was 0%; in [6] it was 4. Further, the “Hepatotoxicity (successful reintroduction)” value in series [3] is “yes”. The “Hepatotoxicity (time to onset)” value in [4] is reported as 2 days - 2 months. For the same compound, the “Hepatotoxicity (cytolytic)” value in series [7] was determined as 3. Also, the “Hepatotoxicity (choleostasis)” value in [8] came out at 0. In series [9], the “Hepatotoxicity (severe hepatitis)” value is given as 2. Moreover, the “Hepatotoxicity (chronic liver disease)” value in series [10] is 0. Further, in [11], the “Hepatotoxicity (cirrhosis)” value is reported as 0. In addition, the “Hepatotoxicity (granulomatous hepatitis)” value in series [12] worked out at 0. Also, the “Hepatotoxicity (association with vascular disease)” value in series [13] is 0. Moreover, in series [14], the “Hepatotoxicity (steatosis)” value is 0. Besides, the “Hepatotoxicity (malignant tumour)” value in series [15] was 0. Further, the “Hepatotoxicity (benign tumour)” value in series [16] was 0.

These data come from ChEMBL document CHEMBL3137667, “[Drug-induced liver injury; fourteenth updated edition of the bibliographic database of liver injuries and related drugs]” (Gastroenterol Clin Biol, 2004).
